Source: patent publication US5892063A (Hauser, Inc., priority 1997, dated 1999)
Read-outs that look alike come from different tables or passages of the source.

What was measured:
U251 = assay: SRB growth screen, CNS cancer U251; details: Homo sapiens, U-251, 48 h; for CC50: read-out: Log10 LC50 (converted)
SW-620 = assay: SRB growth screen, colon cancer SW-620; details: Homo sapiens, SW-620, 48 h; for CC50: read-out: Log10 LC50 (converted); for IC (TGI): read-out: Log10 TGI
UACC-62 = assay: SRB growth screen, melanoma UACC-62; details: Homo sapiens, UACC-62, 48 h; for CC50: read-out: Log10 LC50 (converted)
M14 = assay: SRB growth screen, melanoma M14; details: Homo sapiens, M14, 48 h; for CC50: read-out: Log10 LC50 (converted)
SF-539 = assay: SRB growth screen, CNS cancer SF-539; details: Homo sapiens, SF-539, 48 h; for CC50: read-out: Log10 LC50 (converted)
COLO 205 = assay: SRB growth screen, colon cancer COLO 205; details: Homo sapiens, COLO 205, 48 h; for CC50: read-out: Log10 LC50 (converted)
KM12 = assay: SRB growth screen, colon cancer KM12; details: Homo sapiens, KM12, 48 h
IGROV1 = assay: SRB growth screen, ovarian cancer IGROV1; details: Homo sapiens, IGROV-1, 48 h; for CC50: read-out: Log10 LC50 (converted)
A498 = assay: SRB growth screen, renal cancer A498; details: Homo sapiens, A498, 48 h; for CC50: read-out: Log10 LC50 (converted)
[1] = SRB growth screen, whole cell line panel; type: cell-based; details: for CC50: Homo sapiens, read-out: Log10 LC50, Mean (converted); for GI50: read-out: Log10 GI50, Mean (converted); for IC (TGI): read-out: Log10 TGI, Mean (converted)
Method: The screening assay is performed on 96-well microtitre plates. […] Duplicate wells are prepared for all concentrations; "time-zero" and "nodrug" controls are also provided for each test. […] One hundred microliters of SRB solution (0.4% w/v in 1% acetic acid) is added to each microtitre well and incubated for 10 minutes at room temperature.
The response parameters GI50 and LC50 are interpolated values representing the concentrations at which the percentage growth (PG) is +50 and -50 respectively:
GI50 is the concentration for which the PG=+50.
TGI is the concentration for which PG=0.
LC50 is the concentration for which the PG=-50. […] This is interpreted as cytotoxicity.
The data represented in Table I is graphically represented in FIGS. 1a and 1b through FIGS. 9a and 9b. […] The following is an example of how the information in Table I and in the Figures is interpreted.

OVCAR-5 = assay: SRB growth screen, ovarian cancer OVCAR-5; details: Homo sapiens, OVCAR-5, 48 h; for CC50: read-out: Log10 LC50 (converted); for IC (TGI): read-out: Log10 TGI
BT-549 = assay: SRB growth screen, breast cancer BT-549; details: Homo sapiens, BT-549, 48 h; for GI50: read-out: Log10 GI50 (converted); for CC50: read-out: Log10 LC50 (converted); for IC (TGI): read-out: Log10 TGI
UACC-257 = assay: SRB growth screen, melanoma UACC-257; details: Homo sapiens, UACC-257, 48 h; for CC50: read-out: Log10 LC50 (converted); for IC (TGI): read-out: Log10 TGI
SK-MEL-2 = assay: SRB growth screen, melanoma SK-MEL-2; details: Homo sapiens, SK-MEL-2, 48 h; for CC50: read-out: Log10 LC50 (converted)
CCRF-CEM = assay: SRB growth screen, leukemia CCRF-CEM; details: Homo sapiens
MCF7/ADR-RES = assay: SRB growth screen, breast cancer MCF7/ADR-RES; details: Homo sapiens, 48 h; for CC50: read-out: Log10 LC50 (converted); for IC (TGI): read-out: Log10 TGI
RPMI-8226 = assay: SRB growth screen, leukemia RPMI-8226; details: Homo sapiens, RPMI-8226, 48 h; for CC50: read-out: Log10 LC50 (converted)
SNB-19 = assay: SRB growth screen, CNS cancer SNB-19; details: Homo sapiens, SNB-19, 48 h; for CC50: read-out: Log10 LC50 (converted); for IC (TGI): read-out: Log10 TGI
T-47D = assay: SRB growth screen, breast cancer T-47D; details: Homo sapiens, T47D, 48 h; for GI50: read-out: Log10 GI50 (converted); for CC50: read-out: Log10 LC50 (converted)
LOX-IMVI = assay: SRB growth screen, melanoma LOX-IMVI; details: Homo sapiens, 48 h; for CC50: read-out: Log10 LC50 (converted); for IC (TGI): read-out: Log10 TGI
PC-3 = assay: SRB growth screen, prostate cancer PC-3; details: Homo sapiens, PC-3, 48 h; for CC50: read-out: Log10 LC50 (converted); for IC (TGI): read-out: Log10 TGI
DU-145 = assay: SRB growth screen, prostate cancer DU-145; details: Homo sapiens, DU-145, 48 h; for CC50: read-out: Log10 LC50 (converted); for IC (TGI): read-out: Log10 TGI
[2] = read-out: Log10 GI50 (converted)
[3] = 48 h, read-out: Log10 LC50 (converted)
[4] = read-out: concentration considered cytostasis (percentage growth 0)
[5] = read-out: concentration necessary to achieve primary growth inhibition (PG +50)
[6] = read-out: cytotoxicity concentration (percentage growth -50)

## CC(=O)O[C@H]1C(=O)[C@@]2(C)[C@H]([C@H](OC(=O)c3ccccc3)[C@]3(O)C[C@H](OC(=O)[C@H](O)[C@@H](NC(=O)C4(C)OC4C)c4ccccc4)C(C)=C1C3(C)C)[C@]1(OC(C)=O)CO[C@@H]1C[C@@H]2O (stereo partly shown) [Ceph-epoxide, cephalomannine epoxide]
U251; [2]
  GI50: < 0.01 µM
U251
  CC50: > 100 µM
SW-620
  CC50: > 100 µM
  IC (TGI): > 100 µM
UACC-62; [2]
  GI50: < 0.01 µM
UACC-62
  CC50: > 100 µM
UACC-62; read-out: Log10 TGI
  IC (TGI): > 100 µM
M14; [2]
  GI50: < 0.01 µM
M14
  CC50: > 100 µM
SF-539; [2]
  GI50: < 0.01 µM
SF-539
  CC50: 0.0407 µM
SF-539; read-out: Log10 TGI
  IC (TGI): < 0.01 µM
COLO 205; [2]
  GI50: < 0.01 µM
COLO 205
  CC50: 0.603 µM
COLO 205; read-out: Log10 TGI
  IC (TGI): 0.0269 µM
KM12; [2]
  GI50: < 0.01 µM
IGROV1; [2]
  GI50: < 0.01 µM
IGROV1
  CC50: > 100 µM
A498; [2]
  GI50: 0.316 µM
A498
  CC50: > 100 µM
A498; read-out: Log10 TGI
  IC (TGI): > 100 µM
[1]
  CC50: 64.6 µM
[1]; mean over cell lines
  GI50: 28.8 nM
  IC (TGI): 5.75 µM
OVCAR-5; [2]
  GI50: 0.0275 µM
OVCAR-5
  CC50: > 100 µM
  IC (TGI): 4.79 µM
BT-549
  GI50: 0.01 µM
  CC50: < 100 µM
  IC (TGI): 0.0977 µM
UACC-257; [2]
  GI50: 0.0209 µM
UACC-257
  CC50: > 100 µM
  IC (TGI): > 100 µM
SK-MEL-2; [2]
  GI50: < 0.01 µM
SK-MEL-2
  CC50: > 100 µM
CCRF-CEM; 48 h, read-out: Log10 GI50 (converted)
  GI50: < 0.01 µM
CCRF-CEM; [3]
  CC50: > 100 µM
CCRF-CEM; 48 h, read-out: Log10 TGI
  IC (TGI): 2.51 µM
CCRF-CEM; [4]
  IC (TGI): 2.51 µM
CCRF-CEM; [5]
  IC50: < 10 nM
CCRF-CEM; [6]
  CC50: > 100 µM
MCF7/ADR-RES; [2]
  GI50: 13.8 µM
MCF7/ADR-RES
  CC50: > 100 µM
  IC (TGI): 61.7 µM
RPMI-8226
  CC50: > 100 µM
SNB-19; [2]
  GI50: 0.0257 µM
SNB-19
  CC50: > 100 µM
  IC (TGI): > 100 µM
T-47D
  GI50: 15.5 µM
  CC50: > 100 µM
T-47D; read-out: Log10 TGI
  IC (TGI): > 100 µM
LOX-IMVI; [2]
  GI50: < 0.01 µM
LOX-IMVI
  CC50: > 100 µM
  IC (TGI): 21.4 µM
PC-3; [2]
  GI50: 0.0112 µM
PC-3
  CC50: > 100 µM
  IC (TGI): > 100 µM
DU-145; [2]
  GI50: 0.0263 µM
DU-145
  CC50: > 100 µM
  IC (TGI): 0.145 µM

## CC(=O)O[C@H]1C(=O)[C@@]2(C)[C@H]([C@H](OC(=O)c3ccccc3)[C@]3(O)C[C@H](OC(=O)[C@H](O)[C@@H](NC(=O)c4ccccc4)c4ccccc4)C(C)=C1C3(C)C)[C@]1(OC(C)=O)CO[C@@H]1C[C@@H]2O [Paclitaxel, paclitaxel, reference compound]
U251
  CC50: 70.8 µM
U251; read-out: Log10 TGI
  IC (TGI): 47.9 µM
SW-620
  CC50: > 100 µM
  IC (TGI): > 100 µM
UACC-62
  CC50: 64.6 µM
M14
  CC50: 74.1 µM
M14; read-out: Log10 TGI
  IC (TGI): 24 µM
SF-539
  CC50: > 100 µM
COLO 205
  CC50: > 38.9 µM
KM12; read-out: Log10 LC50 (converted)
  CC50: > 100 µM
KM12; read-out: Log10 TGI
  IC (TGI): 43.7 µM
IGROV1
  CC50: > 100 µM
IGROV1; read-out: Log10 TGI
  IC (TGI): 64.6 µM
A498
  CC50: 74.1 µM
[1]; mean over cell lines
  CC50: 87.1 µM
  GI50: 0.0708 nM
  IC (TGI): 28.8 µM
OVCAR-5
  CC50: > 100 µM
  IC (TGI): 12 µM
BT-549
  GI50: 0.00049 µM
  CC50: > 100 µM
  IC (TGI): 0.479 µM
UACC-257
  CC50: 93.3 µM
  IC (TGI): 30.2 µM
SK-MEL-2
  CC50: > 100 µM
CCRF-CEM; [3]
  CC50: > 100 µM
CCRF-CEM; 48 h, read-out: Log10 TGI
  IC (TGI): > 100 µM
CCRF-CEM; read-out: concentration at which primary growth inhibition occurs (PG +50)
  IC50: 0.00245 nM
CCRF-CEM; [4]
  IC (TGI): > 100 µM
CCRF-CEM; [5]
  IC50: < 10 nM
CCRF-CEM; [6]
  CC50: > 100 µM
MCF7/ADR-RES
  CC50: > 100 µM
  IC (TGI): > 100 µM
RPMI-8226; [2]
  GI50: < 0.1 pM
RPMI-8226
  CC50: > 100 µM
RPMI-8226; read-out: Log10 TGI
  IC (TGI): > 100 µM
SNB-19
  CC50: > 100 µM
  IC (TGI): > 100 µM
T-47D
  GI50: 0.000155 µM
  CC50: > 100 µM
LOX-IMVI
  CC50: > 70.8 µM
  IC (TGI): 22.4 µM
PC-3
  CC50: > 100 µM
  IC (TGI): > 100 µM
DU-145
  CC50: > 100 µM
  IC (TGI): > 100 µM
